# Assay results published in patent US12291518B2, “Thyroid hormone receptor agonists and use thereof” (Eccogene Inc., priority 2020, dated 2025).
# Tests used:
# [1] = target: T1, THR alpha-LBD (Homo sapiens, UniProt P10827); assay: THR-α Coactivator Peptide Recruitment Assay (LanthaScreen TR-FRET); type: biochemical; conditions: TR-FRET coactivator recruitment, THR alpha-LBD 0.25 nM; for EC50: read-out: THRα EC50
# T1 construct: except that THR alpha-LBD of a final concentration 0.25 nM was used; purchased Invitrogen PV4687
# T1 sequence (P10827 163-410 isoform P10827-2 limits assumed, other chains not shown): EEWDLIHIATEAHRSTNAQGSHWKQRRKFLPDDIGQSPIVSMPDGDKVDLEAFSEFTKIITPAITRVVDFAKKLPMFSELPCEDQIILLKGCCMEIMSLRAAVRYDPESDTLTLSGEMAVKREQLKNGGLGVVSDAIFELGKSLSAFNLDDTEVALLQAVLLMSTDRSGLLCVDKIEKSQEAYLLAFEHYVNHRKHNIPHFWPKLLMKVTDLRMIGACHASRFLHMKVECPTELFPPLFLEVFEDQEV
# Protocol: (§1) A time-resolved FRET (TR-FRET) assay was used to test representative compounds of the application.
# (§2) THR-β Coactivator Peptide Recruitment Assay were conducted by using Invitrogen's LanthaScreen™ TR-FRET Thyroid Receptor beta Assay Kit (Catalog no. PV4686). Binding of an agonist to the nuclear receptor causes a subsequent binding of a coactivator peptide, resulting in fluorescence energy transfer from the labelled nuclear receptor to the proximal coactivator peptide, which reflects the binding affinity of the agonist and the nuclear receptor. The assay was conducted by following the manufacturer's instructions. Briefly, THR beta-LBD (the final concentration is 0.5 nM) was added to the 384-well assay plate containing test compounds, followed by addition of Fluorescein-SRC2-2 coactivator peptide and terbium (Tb)-labeled anti-GST antibody. The final concentration of THR beta-LBD, Fluorescein-SRC2-2 coactivator peptide and terbium (Tb)-labeled anti-GST antibody is 0.5 nM, 0.1 nM and 2 nM, respectively. After a gentle mix and incubation at room temperature for 2 h, the signal was read on the EnVision Multilabel Plate Reader at wavelengths of 520 nm and 495 nm. TR-FRET ratio was calculated by dividing the emission signal at 520 nm and the emission signal at 495 nm, and then was plotted against a sigmoidal dose response curve (four parameters, GraphPad™ Prism 8) to determine the EC50 value.
# THR-α Coactivator Peptide Recruitment Assay were conducted by using Invitrogen's LanthaScreen™ TR-FRET Thyroid Receptor alpha Assay Kit (Catalog no. PV4687), following the same method described above except that THR alpha-LBD of a final concentration 0.25 nM was used.
# [2] = target: T2, THR beta-LBD (Homo sapiens, UniProt P10828); assay: THR-β Coactivator Peptide Recruitment Assay (LanthaScreen TR-FRET); type: biochemical; conditions: TR-FRET coactivator recruitment, THR beta-LBD 0.5 nM; for EC50: read-out: THRβ EC50
# T2 construct: THR beta-LBD (the final concentration is 0.5 nM) was added to the 384-well assay plate; purchased Invitrogen PV4686
# T2 sequence (P10828 217-461 limits assumed): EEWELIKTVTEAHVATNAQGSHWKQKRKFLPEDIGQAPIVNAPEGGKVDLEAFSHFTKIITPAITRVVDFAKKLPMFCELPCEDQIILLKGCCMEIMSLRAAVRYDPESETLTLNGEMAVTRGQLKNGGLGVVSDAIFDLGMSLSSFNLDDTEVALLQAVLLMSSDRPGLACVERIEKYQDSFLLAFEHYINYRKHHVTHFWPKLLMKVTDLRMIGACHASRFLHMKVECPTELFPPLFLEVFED
# Protocol: as §1, §2
SMILES,THRα Emax [1],EC50 [1] [nM],THRβ Emax [2],EC50 [2] [nM]
"CO[C@H]1C[C@@H](NS(=O)(=O)c2cc(Oc3c(Cl)cc(-n4nc(C(F)F)c(=O)[nH]c4=O)cc3Cl)ccc2O)C1 [Compound 37, 5-(2,6-dichloro-4-(6-(difluoromethyl)-3,5-dioxo-4,5-dihydro-1,2,4-triazin-2(3H)-yl)phenoxy)-2-hydroxy-N-((1s,3s)-3-methoxycyclobutyl)benzenesulfonamide]",A (85~110),2 to 200,B (75~90),2 to 20
"O=C(N1CCC1)C1(NS(=O)(=O)c2cc(Oc3c(Cl)cc(-n4nc(C(F)F)c(=O)[nH]c4=O)cc3Cl)ccc2O)CC1 [Compound 38, N-(1-(azetidine-1-carbonyl)cyclopropyl)-5-(2,6-dichloro-4-(6-(difluoromethyl)-3,5-dioxo-4,5-dihydro-1,2,4-triazin-2(3H)-yl)phenoxy)-2-hydroxybenzenesulfonamide]",A (85~110),2 to 200,B (75~90),2 to 20
"CS(=O)(=O)[C@H]1CCN(S(=O)(=O)c2cc(Oc3c(Cl)cc(-n4nc(C(F)F)c(=O)[nH]c4=O)cc3Cl)ccc2O)C1 [Compound 39, (S)-2-(3,5-dichloro-4-(4-hydroxy-3-((3-(methylsulfonyl)pyrrolidin-1-yl)sulfonyl)phenoxy)phenyl)-6-(difluoromethyl)-1,2,4-triazine-3,5(2H,4H)-dione]",B (40~85),2 to 200,C (<75),< 2
"C[C@@H](CO)NS(=O)(=O)c1cc(Oc2c(Cl)cc(-n3nc(C(F)F)c(=O)[nH]c3=O)cc2Cl)ccc1O [Compound 41, (S)-5-(2,6-dichloro-4-(6-(difluoromethyl)-3,5-dioxo-4,5-dihydro-1,2,4-triazin-2(3H)-yl)phenoxy)-2-hydroxy-N-(1-hydroxypropan-2-yl)benzenesulfonamide]",A (85~110),2 to 200,B (75~90),< 2
"O=c1[nH]c(=O)n(-c2cc(Cl)c(Oc3ccc(O)c(S(=O)(=O)NC[C@H]4C[C@@H](O)C4)c3)c(Cl)c2)nc1C(F)F [Compound 44, 5-(2,6-dichloro-4-(6-(difluoromethyl)-3,5-dioxo-4,5-dihydro-1,2,4-triazin-2(3H)-yl)phenoxy)-2-hydroxy-N-(((1s,3s)-3-hydroxycyclobutyl)methyl)benzenesulfonamide]",A (85~110),2 to 200,B (75~90),2 to 20
"C[C@H](CO)NS(=O)(=O)c1cc(Oc2c(Cl)cc(-n3nc(C(F)F)c(=O)[nH]c3=O)cc2Cl)ccc1O [Compound 45, (R)-5-(2,6-dichloro-4-(6-(difluoromethyl)-3,5-dioxo-4,5-dihydro-1,2,4-triazin-2(3H)-yl)phenoxy)-2-hydroxy-N-(1-hydroxypropan-2-yl)benzenesulfonamide]",A (85~110),2 to 200,B (75~90),< 2
"O=c1[nH]c(=O)n(-c2cc(Cl)c(Oc3ccc(O)c(S(=O)(=O)N[C@@H]4CCN(S(=O)(=O)C5CC5)C4)c3)c(Cl)c2)nc1C(F)F [Compound 48, (R)-N-(1-(cyclopropylsulfonyl)pyrrolidin-3-yl)-5-(2,6-dichloro-4-(6-(difluoromethyl)-3,5-dioxo-4,5-dihydro-1,2,4-triazin-2(3H)-yl)phenoxy)-2-hydroxybenzenesulfonamide]",B (40~85),200 to 1000,C (<75),2 to 20
"O=c1[nH]c(=O)n(-c2cc(Cl)c(Oc3ccc(O)c(S(=O)(=O)N[C@H]4CCN(S(=O)(=O)C5CC5)C4)c3)c(Cl)c2)nc1C(F)F [Compound 49, (S)-N-(1-(cyclopropylsulfonyl)pyrrolidin-3-yl)-5-(2,6-dichloro-4-(6-(difluoromethyl)-3,5-dioxo-4,5-dihydro-1,2,4-triazin-2(3H)-yl)phenoxy)-2-hydroxybenzenesulfonamide]",C (<40),200 to 1000,C (<75),2 to 20
"CS(=O)(=O)N1CC[C@@H](NS(=O)(=O)c2cc(Oc3c(Cl)cc(-n4nc(C(F)F)c(=O)[nH]c4=O)cc3Cl)ccc2O)C1 [Compound 51, (R)-5-(2,6-dichloro-4-(6-(difluoromethyl)-3,5-dioxo-4,5-dihydro-1,2,4-triazin-2(3H)-yl)phenoxy)-2-hydroxy-N-(1-(methylsulfonyl)pyrrolidin-3-yl)benzenesulfonamide]",B (40~85),200 to 1000,C (<75),2 to 20
"O=C(C1CC1)N1CC(NS(=O)(=O)c2cc(Oc3c(Cl)cc(-n4nc(C(F)F)c(=O)[nH]c4=O)cc3Cl)ccc2O)C1 [Compound 52, N-(1-(cyclopropanecarbonyl)azetidin-3-yl)-5-(2,6-dichloro-4-(6-(difluoromethyl)-3,5-dioxo-4,5-dihydro-1,2,4-triazin-2(3H)-yl)phenoxy)-2-hydroxybenzenesulfonamide]",B (40~85),> 1000,B (75~90),20 to 100

# Second part, the compound after the results:
THRα Emax [1],EC50 [1] [nM],THRβ Emax [2],EC50 [2] [nM],SMILES
A (85~110),2 to 200,B (75~90),< 2,"O=c1[nH]c(=O)n(-c2cc(Cl)c(Oc3ccc(O)c(S(=O)(=O)N4CC(O)C4)c3)c(Cl)c2)nc1C(F)F [Compound 40, 2-[3,5-dichloro-4-[4-hydroxy-3-(3-hydroxyazetidin-1-yl)sulfonyl-phenoxy]phenyl]-6-(difluoromethyl)-1,2,4-triazine-3,5-dione]"
A (85~110),2 to 200,A (90~110),2 to 20,"O=c1[nH]c(=O)n(-c2cc(Cl)c(Oc3ccc(O)c(S(=O)(=O)NC[C@H]4C[C@H](O)C4)c3)c(Cl)c2)nc1C(F)F [Compound 43, 5-(2,6-dichloro-4-(6-(difluoromethyl)-3,5-dioxo-4,5-dihydro-1,2,4-triazin-2(3H)-yl)phenoxy)-2-hydroxy-N-(((1r,3r)-3-hydroxycyclobutyl)methyl)benzenesulfonamide]"
B (40~85),2 to 200,B (75~90),< 2,"CS(=O)(=O)N[C@H]1CCN(S(=O)(=O)c2cc(Oc3c(Cl)cc(-n4nc(C(F)F)c(=O)[nH]c4=O)cc3Cl)ccc2O)C1 [Compound 46, N-[(3S)-1-[5-[2,6-dichloro-4-[6-(difluoromethyl)-3,5-dioxo-1,2,4-triazin-2-yl]phenoxy]-2-hydroxy-phenyl]sulfonylpyrrolidin-3-yl]methanesulfonamide]"
B (40~85),2 to 200,C (<75),2 to 20,"CS(=O)(=O)N[C@@H]1CCN(S(=O)(=O)c2cc(Oc3c(Cl)cc(-n4nc(C(F)F)c(=O)[nH]c4=O)cc3Cl)ccc2O)C1 [Compound 47, (R)-N-(1-((5-(2,6-dichloro-4-(6-(difluoromethyl)-3,5-dioxo-4,5-dihydro-1,2,4-triazin-2(3H)-yl)phenoxy)-2-hydroxyphenyl)sulfonyl)pyrrolidin-3-yl)methanesulfonamide]"
B (40~85),200 to 1000,C (<75),2 to 20,"CS(=O)(=O)N1CC[C@H](NS(=O)(=O)c2cc(Oc3c(Cl)cc(-n4nc(C(F)F)c(=O)[nH]c4=O)cc3Cl)ccc2O)C1 [Compound 50, (S)-5-(2,6-dichloro-4-(6-(difluoromethyl)-3,5-dioxo-4,5-dihydro-1,2,4-triazin-2(3H)-yl)phenoxy)-2-hydroxy-N-(1-(methylsulfonyl)pyrrolidin-3-yl)benzenesulfonamide]"
B (40~85),> 1000,B (75~90),2 to 20,"CN(C)C(=O)N1CC(NS(=O)(=O)c2cc(Oc3c(Cl)cc(-n4nc(C(F)F)c(=O)[nH]c4=O)cc3Cl)ccc2O)C1 [Compound 53, 3-((5-(2,6-dichloro-4-(6-(difluoromethyl)-3,5-dioxo-4,5-dihydro-1,2,4-triazin-2(3H)-yl)phenoxy)-2-hydroxyphenyl)sulfonamido)-N,N-dimethylazetidine-1-carboxamide]"
